In assay [1] the test system is wire worm (Agriotes sp.) larvae. Description: Efficacy test of corn seed treatment against Agriotes sp. Format: in vivo. The note with it: corn seeds coated, 42 days; for Healthy stock ratio: 50 g compound per 50,000 seeds, 12 larvae per 12-seed container, outdoors. The source says: Efficacy test of corn seed treatment against Agriotes sp.
The compound (1) (30 parts), tristyryl-based surfactant (6.0 parts), dioctylsulfosuccinate metal salt (1.5 parts), silicone-based defoamer (1.2 parts), xanthan gum (0.2 parts), 1,2-benzisothiazolin-3-one (0.1 parts), propylene glycol (5.0 parts), and water (56 parts) were mixed to prepare a reagent solution.
Corn seeds were coated with the reagent solution so that the treatment amount of the compound (1) was 50 g per 50,000 seeds.
Further, corn seeds were similarly coated with tefluthrin as a control agent so that the treatment amount was 10 g per 50,000 seeds.
The treated seeds were planted in a 12-seed container and inoculated with 12 wire worm (Agriotes sp.) larvae. The container was placed outdoors, and 42 days later, the number of healthy stocks and the number of damaged stocks were investigated to determine the efficacy. The test was repeated 4 times.
The healthy stock ratio was calculated using the following formula.
Healthy stock ratio (%)=100×(number of healthy stocks/number of seeds)

The subject of assay [2] is Phyllotreta striolata. Description: Efficacy test of rape seed treatment against Phyllotreta striolata. Conditions: rape seeds coated, 10 g per 100 kg of seeds; inoculated 14 days after planting; 6 days after releasing the insects; 25° C., humidity 65%. Format: in vivo. From the text:
Efficacy test of rape seed treatment against Phyllotreta striolata
The compound (I) (30 parts), tristyryl-based surfactant (6.0 parts), dioctylsulfosuccinate metal salt (1.5 parts), silicone-based defoamer (1.2 parts), xanthan gum (0.2 parts), 1,2-benzisothiazolin-3-one (0.1 parts), propylene glycol (5.0 parts), and water (56 parts) were mixed to prepare a reagent solution.
Rape seeds were coated with the reagent solution so that the treatment amount of the compound (I) was 10 g per 100 kg of seeds.
The treated seeds were planted in a 10-seed pot and raised in a greenhouse for 14 days. After that, each pot was inoculated with 5 Phyllotreta striolata. The pots were stored in a constant temperature room at a temperature of 25° C. and at a humidity of 65%.
The life/death determination was made 6 days after releasing the insects, and the insecticidal rate was calculated by the following formula. The test was repeated 3 times.
Insecticidal rate (%)=(number of dead insects/number of test insects)×100

Regarding `Cc1c(F)c(F)c(COC(=O)[C@@H]2[C@H](/C=C(\Cl)C(F)(F)F)C2(C)C)c(F)c1F` (racemic) [tefluthrin, reference compound], the healthy stock rate in assay [1] (control agent, 10 g per 50,000 seeds) is given as 62.5%.
For `CCS(=O)(=O)c1cc(C2CC2)cnc1-c1ncc(C=C(Cl)C(F)(F)F)n1C` [formula (II)], the Insecticidal rate in assay [2] came out at 100%. Moreover, the Healthy stock ratio in assay [1] stood at 83.3%.
With `CCS(=O)(=O)c1cc(C2CC2)cnc1-c1ncc(C(F)C(F)(C(F)(F)F)C(F)(F)F)n1C` (centres unmarked) [formula (III)], in assay [2], the Insecticidal rate was determined as 100%. Also, in assay [1] (unit not given), the Healthy stock ratio was 81.3.

The record behind these values is patent US20240108004A1, “METHOD FOR CONTROLLING INSECTS IN CROP PLANTS, SEEDS AND COMPOSITION” (Nippon Soda Co., Ltd., priority 2021, published 2024).
